As a reminder, the IC50 is the concentration that gives 50% inhibition.

The test relates to Mycobacterium tuberculosis variant bovis. Kind of test: Antibacterial activity against Mycobacterium bovis BCG assessed as reduction in bacterial growth. Type of test: functional, organism-based.
In the case of `CC(C)(C)c1ccc(CCNc2ncnc3ccsc23)cc1`, the 50% inhibitory concentration (IC50) came out at 5800 nM.
For `Fc1ccc2c(NCCc3ccc(OC(F)(F)F)cc3)ncnc2c1` the value was 800 nM.
For `CC(C)(C)c1ccc(CCNc2ncnc3ccccc23)cc1`, the IC50 was determined as 800 nM.

The values above are taken from ChEMBL document CHEMBL5344478, “Cytochrome bd oxidase: an emerging anti-tubercular drug target” (RSC Med Chem, 2024).
